Several values for one entry are separate records, joined by “and”; a condition that tells them apart may be missing. Equal values may be shown once. No end group written: not given here. Acr = acridine on the lysine ε-amine; PEG = not defined here
Experiments:
[1] = system: DC-SIGN (+) and (−) CHO cells; test: in vitro transfection with glycopeptide DNA polyplexes; assay type: cell-based, human; settings: luciferase, 24 hrs
Description: DC-SIGN (+) CHO cells (1×10^5) were plated in 6-well plates in triplicate in 1 ml DMEM high glucose supplemented with 7% FBS and 1% MEM non-essential amino acids. After incubation for 24 hrs at 37° C. in 5% CO2, the media was removed, the cells were washed with 1 ml DPBS, replaced with 1 ml DMEM high glucose media supplemented with 2% FBS and 0.3% MEM non-essential amino acids.
Cells were transfected in triplicate for 24 hrs with pGL3 polyplexes (1 μg DNA and 0.6 nmol of glycopeptide in a total volume of 30 μl). The efficiency of glycopeptide DNA polyplex transfection was compared with PEI-DNA transfection performed by combining 1 μg DNA with 1.2 μg of PEI (N:P of 9) in 100 μl of 5 mM Hepes, 270 mM mannitol, pH 7.4. After 24 hrs, cells were washed with 2 ml of DPBS and lysed with 0.5 ml of lysis buffer (25 mM tris chloride, 1 mM EDTA, 8 mM magnesium chloride, 1% Triton X-100, pH 7.8) for 10 min at 4° C. […] The relative light units were determined with 10 sec integration after automatic injection of 100 μl of 0.43 mM D-luciferin. Protein concentrations were measured by a BCA assay with bovine serum albumin as a standard (Smith, P. K., Krohn, R. I., Hermanson, G. T., Mallia, A. K., Gartner, F. H., Provenzano, M. D., Fujimoto, E. K., Goeke, N. M., Olson, B. J., and Klenk, D. C. (1985) Measurement of protein using bicinchoninic acid. Anal Biochem 150, 76-85). […]

plasmid = test: DNA band shift assay of Man9-(Acr-Lys)6; assay type: binding
Description: (§1) We tested Man9-N-glycan polyacridine peptides as a DNA vaccine adjuvant for use in combination with an intramuscular electroporation apparatus. […] The Man9-(Acr-Lys)6 (SEQ ID NO: 42) that we used for this study has the following structure of In certain embodiments the compound is Formula IVb: […]

Mice = test: IM-EP of Man9-(Acr-Lys)6 DNA in mice; assay type: in vivo; settings: intramuscular electroporation, 1 μg DNA
Description: as §1
The inventors obtained mouse data illustrating the electroporation apparatus expression of Man9-(Acr-Lys)6 (SEQ ID NO: 42) DNA (1 μg) at 0 and 0.012 nmoles of Man9-(Acr-Lys)6 (SEQ ID NO: 42) per μg of DNA (FIG. 32). The luciferase gene expression was equivalent at 0, 0.003 and 0.006 nmols of Man9 per μg of DNA, and then decreased at 0.0125 nmols of Man9 and higher. 0.0125 nmols of Man9-(Acr-Lys)6 (SEQ ID NO: 42) per μg of DNA corresponds 40 copies of Man9 per plasmid.

pGL3 [2] = test: thiazole orange displacement assay of Man 9 glycopeptide; assay type: binding; settings: pGL3 1 μg, 40 nM thiazole orange
Description: A control sample of pGL3 (1 μg) was combined with 40 nM thiazole orange in a total volume of 500 μl of 5 mM Hepes buffer pH 7.4. The Man 9 glycopeptide (0.2, 0.3, 0.4, 1 and 2 nmol) or Cys-(Acr-Lys)4 peptide (SEQ ID NO: 23) was added to pGL3 (1 μg) samples containing thiazole orange, and incubated for 30 min, followed by measuring the fluorescence intensity at excitation 500 nm and emission 530 nm (Wadhwa, M. S., Collard, W. T., Adami, R. C., McKenzie, D. L., and Rice, K. G. (1997) Peptide-mediated gene delivery: influence of peptide structure on gene expression. Bioconjugate Chemistry 8, 81-8). The percent fluorescence intensity relative to control was plotted versus the stoichiometry of glycopeptide or peptide added to DNA to determine the equivalence point.

[3] = system: DC-SIGN (+) and (−) CHO cells; test: Cy5-DNA glycopeptide polyplex uptake by FACS; assay type: cell-based, human; settings: 24 hr 37° C.
Description: pGL3 plasmid (5 μg) was labeled with Label IT according to the manufacturer's instructions to prepare Cy5-DNA. The Man 9 glycopeptide (0.5 nmol) was combined with 1 μg Cy5-DNA in 60 μl of water and incubated for 30 min to form a polyplex. DC-SIGN (+) and (−) CHO cells (1×10^6) (Granelli-Pipemo, A., Pritsker, A., Pack, M., Shimeliovich, I., Arrighi, J. F., Park, C. G., Trumpfheller, C., Piguet, V., Moran, T. M., and Steinman, R. M. (2005) Dendritic Cell Specific Intercellular Adhesion Molecule 3-Grabbing Nonintegrin/CD209 Is Abundant on Macrophages in the Normal Human Lymph Node and Is Not Required for Dendritic Cell Stimulation of the Mixed Leukocyte Reaction. J Immunology 7, 4260-4273) were each plated in triplicate in 35 mm wells and grown in DMEM supplemented with 7% FBS and 1% nonessential amino acids for 24 hrs. CHO (+) and (−) cells were transfected for 24 hrs with 1 μg of Cy5-DNA polyplex. The CHO cells were lifted by treatment with 5 ml of 1 mM EDTA in PBS and concentrated by centrifugation by 2,000×g, before diluting to a final volume of 1 ml in PBS. The transfected CHO (+) and (−) cells were analyzed by FACS on a Becton Dickson LSRII with excitation 488 nm and emission 575 nm, and compared to untransfected CHO cells.

pGL3 [4] = test: Man 9 glycopeptide DNA band shift assay; assay type: binding; settings: agarose gel
Description: pGL3 (1 μg) was combined with 0.05, 0.2, 0.5, and 1 nmol of Man 9 glycopeptide. Each sample was incubated for 30 min before loading onto an agarose gel, that was electrophoresed at 80 V for 60 min (Adami, R. C., Collard, W. T., Gupta, S. A., Kwok, K. Y., Bonadio, J., and Rice, K. G. (1998) Stability of Peptide-Condensed Plasmid DNA Formulations. Journal of Pharmaceutical Sciences 87, 678-683). The gel was stained with 0.1 mg per ml of ethidium bromide at 4° C. for 24 hrs, then photographed while illuminating on a transilluminator.

liver = test: hydrodynamic stimulation and bioluminescence imaging of luciferase expression; assay type: in vivo, mice; settings: 1 μg pGL3 dose, HD stimulation after 30 min, 24 hrs
Description: pGL3 (1 μg) was prepared in a volume of normal saline corresponding to 9 wt/vol % of the mouse's body weight (1.8-2.25 ml based on 20-25 g mice). The DNA dose was administered by tail vein to 4-5 mice in 5 sec according to a published procedure (Liu F, Song Y, Liu D. Hydrodynamics-based transfection in animals by systemic administration of plasmid DNA. Gene Ther 1999; 6: 1258-1266; Zhang G, Budker V, Wolff J A. High levels of foreign gene expression in hepatocytes after tail vein injections of naked plasmid DNA. Human Gene Therapy 1999; 10: 1735-1737). Mice (4-5) were also dosed tail vein with 1 μg of PEGylated polyacridine polyplex in 50 μl of HBM (5 mM Hepes, 0.27 M mannitol, pH 7.4). At times ranging from 5-120 min, a stimulatory hydrodynamic dose of normal saline (9 wt/vol % of the body weight) was administered over 5 sec. At 24 hrs post-DNA dose, mice were anesthetized by 3% isofluorane, then administered an i.p. dose of 80 μl (2.4 mg) of D-luciferin (30 μg/μl in phosphate-buffered saline). At 5 min following the D-luciferin dose, mice were imaged for bioluminescence (BLI) on an IVIS Imaging 200 Series (Xenogen). BLI was performed in a light-tight chamber on a temperature-controlled, adjustable stage while isofluorane was administered by a gas manifold at a flow rate of 3%. Images were acquired at a ‘medium’ binning level and a 20 cm field of view. Acquisition times were varied (1 sec^−1 min) depending on the intensity of the luminescence. The Xenogen system reported bioluminescence as photons/sec/cm^2/seradian in a 2.86 cm diameter region of interest covering the liver. The integration area was transformed to pmols of luciferase in the liver using a previously reported standard curve (Rettig G et al. Quantitative Bioluminscence Imaging of Transgene Expression In Vivo. Analytical Biochemistry 2006; 335: 90-94). The results were determined to be statistically significant (p≦0.05) based on a two-tailed unpaired t-test.

[5] = following i.v. dosing; Collard et al. 2000; cited from earlier work

## Cys-(Acr-Lys)4: DNA binding polyacridine peptide with N-terminal Cys, prepared with Fmoc-Lys(Acr); SEQ ID NO: 23
[1]
  selectivity of gene transfer for CHO (+) or (−) cells: did not demonstrate selectivity

## Man9-(Acr-Lys)6: Iodoacetamide Man9 N-glycan reacted with Cys(Acr-Lys)6; Formula IVb (K(Acr)KK(Acr)KK(Acr)KK(Acr)KK(Acr)KK(Acr)K; not fully specified (N-terminus); also: Man9 N-glycan attached via iodoacetamide to a Cys not shown in chain)
plasmid
  copies bound to plasmid: up to 40 copies
Mice
  luciferase gene expression at 0, 0.003 and 0.006 nmols of Man9 per μg of DNA: equivalent
  luciferase gene expression at 0.0125 nmols of Man9 and higher: decreased

## Man 9 glycopeptide: high mannose N-glycan Man 9 Mal (Tyr, propionate maleimide) conjugated to Cys-(Acr-Lys)4
pGL3 [2]
  thiazole orange displacement, asymptote / equivalence point for polyplex formation: 0.4 nmol per μg of DNA
[3]
  cell uptake (fluorescence intensity), CHO (+) over CHO (−) cells: 10-50 fold and ~10 fold
pGL3 [4]
  stoichiometry at which the band shift was complete: ≥ 0.4 nmol of glycopeptide per μg of DNA

## PEG-Cys-Trp-Lys18: PEGylated polylysine peptide control, SEQ ID NO: 34 (C(PEG)WKKKKKKKKKKKKKKKKKK; reading uncertain)
liver
  stimulated luciferase expression of controls: failed to produce measurable expression
liver; listed as PEGylated-Cys-Trp-Lys18
  stimulated luciferase expression of controls: no detectable luciferase expression
[5]
  complete metabolism of plasmid DNA in the circulation: ≤ 3 min

Reference: patent US20120035320A1, “POLYACRIDINE NUCLEIC ACID DELIVERY PEPTIDE COMPLEXES” (University of Iowa Research Foundation, priority 2010, published 2012)
